Data on 24 compounds can be found in US11472791B2 (Incyte Corporation, priority 2019, dated 2022).

pIC50: −log10 of the molar value. A value given as a limit tells only on which side of the number the result lay.

In this assay the target is CDK2/Cyclin E1 (Homo sapiens (Human), UniProt P24941). The experiment in a line: CDK2/Cyclin E1 HTRF enzyme activity assay. Particulars: 1 mM ATP. It is filed as biochemical. How it is done:
Assays are conducted in white 384-well polystyrene plates in a final reaction volume of 8 μL. […] HTRF signals are read after 1 hour at room temperature on a PHERAstar FS plate reader (BMG Labtech). Data is analyzed with IDBS XLFit and GraphPad Prism 5.0 software using a three or four parameter dose response curve to determine IC50 for each compound.
A general note: In TR-FRET formats the signal depends on donor and acceptor labels being close together.
Take `CCn1cc(CNCc2ccc(-n3cc(-c4nc(NC5CCN(S(C)(=O)=O)CC5)ncc4C#N)cn3)c(Cl)c2)cn1` [Example 194, 4-(1-(2-Chloro-4-((((1-ethyl-1H-pyrazol-4-yl)methyl)amino)methyl)phenyl)-1H-pyrazol-4-yl)-2-((1-(methylsulfonyl)piperidin-4-yl)amino)pyrimidine-5-carbonitrile]: the pIC50 – broadly, the IC50 on a negative log10 scale, so that one unit is a factor of ten – is > 7.30.
As for `[2H]C([2H])([2H])NCc1ccc(-n2cc(-c3nc(NC4CCN(S(=O)(=O)c5ccn(C)n5)CC4)ncc3Cl)cn2)c(C)c1` [Example 137, 5-Chloro-N-(1-((1-methyl-1H-pyrazol-3-yl)sulfonyl)piperidin-4-yl)-4-(1-(2-methyl-4-(((methyl-d3)amino)methyl)phenyl)-1H-pyrazol-4-yl)pyrimidin-2-amine], the figure is > 7.30; as for `CCS(=O)(=O)N1CCC(Nc2ncc(C#N)c(-c3cnn(-c4ccc(CN[C@@H]5CCCC[C@@]5(C)O)cc4Cl)c3)n2)CC1` (racemic) [Example 287, (±)-4-(1-(2-Chloro-4-((((1r,2r)-2-hydroxy-2-methylcyclohexyl)amino)methyl)phenyl)-1H-pyrazol-4-yl)-2-((1-(ethylsulfonyl)piperidin-4-yl)amino)pyrimidine-5-carbonitrile], > 7.30; as for `COC1CCN(CCCS(=O)(=O)N2CCC(Nc3ncc(C(F)(F)F)c(-c4cnn(CC(C)(C)O)c4)n3)CC2)CC1` [Example 77, 1-(4-(2-((1-((3-(4-Methoxypiperidin-1-yl)propyl)sulfonyl)piperidin-4-yl)amino)-5-(trifluoromethyl)pyrimidin-4-yl)-1H-pyrazol-1-yl)-2-methylpropan-2-ol], > 7.30.
With `CN(C)CCCS(=O)(=O)N1CC[C@H](Nc2ncc(C(F)(F)F)c(-c3cnn(CC(C)(C)O)c3)n2)[C@H](F)C1` [Example 205, 1-(4-(2-(((3R,4S)-1-((3-(Dimethylamino)propyl)sulfonyl)-3-fluoropiperidin-4-yl)amino)-5-(trifluoromethyl)pyrimidin-4-yl)-1H-pyrazol-1-yl)-2-methylpropan-2-ol], the pIC50 was > 7.30.
Next, `CC(C)(O)Cn1cc(-c2nc(NC3CCN(S(=O)(=O)CCN4CCOCC4)CC3)ncc2C(F)(F)F)cn1` [Example 84, 2-Methyl-1-(4-(2-((1-((2-morpholinoethyl)sulfonyl)piperidin-4-yl)amino)-5-(trifluoromethyl)pyrimidin-4-yl)-1H-pyrazol-1-yl)propan-2-ol]: > 7.30; `CS(=O)(=O)N1CCC(Nc2ncc(C#N)c(-c3cnn(-c4ccc(CN[C@H]5CC[C@](C)(O)CC5)cc4Cl)c3)n2)CC1` [Example 174, 4-(1-(2-Chloro-4-((((1r,4r)-4-hydroxy-4-methylcyclohexyl)amino)methyl)phenyl)-1H-pyrazol-4-yl)-2-((1-(methylsulfonyl)piperidin-4-yl)amino)pyrimidine-5-carbonitrile]: > 7.30.
Next, `CCN1CCN(Cc2ccc(-n3cc(-c4nc(N[C@H]5CCN(S(=O)(=O)c6cn(C)cn6)C[C@H]5C)ncc4C(F)(F)F)cn3)c(C)n2)CC1` [Example 256, 4-(1-(6-((4-Ethylpiperazin-1-yl)methyl)-2-methylpyridin-3-yl)-1H-pyrazol-4-yl)-N-((3R,4S)-3-methyl-1-((1-methyl-1H-imidazol-4-yl)sulfonyl)piperidin-4-yl)-5-(trifluoromethyl)pyrimidin-2-amine]: > 7.30; `Cc1cc(CN2CCN(CC3CC3)CC2)ccc1-n1cc(-c2nc(NC3CCN(S(=O)(=O)c4cn(C)cn4)CC3)ncc2C(F)(F)F)cn1` [Example 236, 4-(1-(4-((4-(Cyclopropylmethyl)piperazin-1-yl)methyl)-2-methylphenyl)-1H-pyrazol-4-yl)-N-(1-((1-methyl-1H-imidazol-4-yl)sulfonyl)piperidin-4-yl)-5-(trifluoromethyl)pyrimidin-2-amine]: > 7.30.
For `CC(C)(O)Cn1cc(-c2nc(NC3CCN(S(=O)(=O)CCN4CCCC4)CC3)ncc2C(F)(F)F)cn1` [Example 82, 2-Methyl-1-(4-(2-((1-((2-(pyrrolidin-1-yl)ethyl)sulfonyl)piperidin-4-yl)amino)-5-(trifluoromethyl)pyrimidin-4-yl)-1H-pyrazol-1-yl)propan-2-ol], the pIC50 is > 7.30.
On to `CC(C)(O)Cn1cc(-c2nc(NC3CCN(S(=O)(=O)CCCN4CCCC4)CC3)ncc2C#N)cn1` [Example 214, 4-(1-(2-Hydroxy-2-methylpropyl)-1H-pyrazol-4-yl)-2-((1-((3-(pyrrolidin-1-yl)propyl)sulfonyl)piperidin-4-yl)amino)pyrimidine-5-carbonitrile], for which the pIC50 was > 7.30.
Next, `Cn1cnc(S(=O)(=O)N2CCC(Nc3ncc(C(F)(F)F)c(-c4cnn([C@H]5CC[C@H](O)CC5)c4)n3)CC2)c1` [Example 26, trans-4-(4-(2-((1-((1-Methyl-1H-imidazol-4-yl)sulfonyl)piperidin-4-yl)amino)-5-(trifluoromethyl)pyrimidin-4-yl)-1H-pyrazol-1-yl)cyclohexan-1-ol]: > 7.30.
As for `C[C@]1(N)C[C@@H](n2cc(-c3nc(NC4CCN(S(=O)(=O)C5CCC5)CC4)ncc3C(F)(F)F)cn2)C1` [Example 46, 4-(1-((1s,3s)-3-Amino-3-methylcyclobutyl)-1H-pyrazol-4-yl)-N-(1-(cyclobutylsulfonyl)piperidin-4-yl)-5-(trifluoromethyl)pyrimidin-2-amine], the pIC50 is > 7.30.
As for `CS(=O)(=O)N1CCC(Nc2ncc(C#N)c(-c3cnn(-c4ccc(CN[C@H]5C[C@@](C)(O)C5)cc4Cl)c3)n2)CC1` [Example 190, 4-(1-(2-Chloro-4-((((1s,3s)-3-hydroxy-3-methylcyclobutyl)amino)methyl)phenyl)-1H-pyrazol-4-yl)-2-((1-(methylsulfonyl)piperidin-4-yl)amino)pyrimidine-5-carbonitrile], the figure is > 7.30; as for `CC(C)(C(N)=O)n1cc(-c2nc(NC3CCN(S(=O)(=O)C4CC4)CC3)ncc2C(F)(F)F)cn1` [Example 98, 2-(4-(2-((1-(Cyclopropylsulfonyl)piperidin-4-yl)amino)-5-(trifluoromethyl)pyrimidin-4-yl)-1H-pyrazol-1-yl)-2-methylpropanamide], > 7.30; as for `CS(=O)(=O)N1CCC(Nc2ncc(C#N)c(-c3cnn(-c4ccc(CN[C@H]5C[C@@H](C#N)C5)cc4Cl)c3)n2)CC1` [Example 164, 4-(1-(2-Chloro-4-((((1s,3s)-3-cyanocyclobutyl)amino)methyl)phenyl)-1H-pyrazol-4-yl)-2-((1-(methylsulfonyl)piperidin-4-yl)amino)pyrimidine-5-carbonitrile], > 7.30.
With `CC(=O)N1CC(NCc2ccc(-n3cc(-c4nc(NC5CCN(S(C)(=O)=O)CC5)ncc4C#N)cn3)c(Cl)c2)C1` [Example 171, 4-(1-(4-(((1-Acetylazetidin-3-yl)amino)methyl)-2-chlorophenyl)-1H-pyrazol-4-yl)-2-((1-(methylsulfonyl)piperidin-4-yl)amino)pyrimidine-5-carbonitrile], the pIC50 was > 7.30.
Next, `COC[C@@H]1CCN1CCCS(=O)(=O)N1CCC(Nc2ncc(C(F)(F)F)c(-c3cnn(CC(C)(C)O)c3)n2)CC1` [Example 221, (S)-1-(4-(2-((1-((3-(2-(Methoxymethyl)azetidin-1-yl)propyl)sulfonyl)piperidin-4-yl)amino)-5-(trifluoromethyl)pyrimidin-4-yl)-1H-pyrazol-1-yl)-2-methylpropan-2-ol]: > 7.30; `CCS(=O)(=O)N1CCC(Nc2ncc(C#N)c(-c3cnn(-c4ccc(CN[C@H]5C[C@@](C)(O)C5)cc4Cl)c3)n2)CC1` [Example 192, 4-(1-(2-Chloro-4-((((1s,3s)-3-hydroxy-3-methylcyclobutyl)amino)methyl)phenyl)-1H-pyrazol-4-yl)-2-((1-(ethylsulfonyl)piperidin-4-yl)amino)pyrimidine-5-carbonitrile]: > 7.30.
As for `O=C(Nc1ccc(S(=O)(=O)N2CCC(Nc3ncc(C(F)(F)F)c(-c4cnn(C5CCOCC5)c4)n3)CC2)cc1)N1CCOCC1` [Example 8, N-(4-((4-((4-(1-(Tetrahydro-2H-pyran-4-yl)-1H-pyrazol-4-yl)-5-(trifluoromethyl)pyrimidin-2-yl)amino)piperidin-1-yl)sulfonyl)phenyl)morpholine-4-carboxamide], the figure is > 7.30; as for `CCN1CCN(Cc2ccc(-n3cc(-c4nc(NC5CCN(S(C)(=O)=O)CC5)ncc4C#N)cn3)c(Cl)c2)CC1` [Example 238, 4-(1-(2-Chloro-4-((4-ethylpiperazin-1-yl)methyl)phenyl)-1H-pyrazol-4-yl)-2-((1-(methylsulfonyl)piperidin-4-yl)amino)pyrimidine-5-carbonitrile], > 7.30.
Next, `CCN(CC)C1CCC(S(=O)(=O)N2CCC(Nc3ncc(C(F)(F)F)c(-c4cnn(CC(C)(C)O)c4)n3)CC2)CC1` (single isomer, unassigned) [89 (peak 1), 1-(4-(2-((1-((4-(Diethylamino)cyclohexyl)sulfonyl)piperidin-4-yl)amino)-5-(trifluoromethyl)pyrimidin-4-yl)-1H-pyrazol-1-yl)-2-methylpropan-2-ol]: > 7.30.
Consider `CN1CCN(Cc2ccc(-n3cc(-c4nc(NC5CCN(S(=O)(=O)c6cn(C)cn6)CC5)ncc4Cl)cn3)c(Cl)c2)CC1` [Example 108, 5-Chloro-4-(1-(2-chloro-4-((4-methylpiperazin-1-yl)methyl)phenyl)-1H-pyrazol-4-yl)-N-(1-((1-methyl-1H-imidazol-4-yl)sulfonyl)piperidin-4-yl)pyrimidin-2-amine], for which the pIC50 was > 7.30.
`Cc1nc(C(=O)N[C@]2(C)C[C@H](O)C2)ccc1-n1cc(-c2nc(NC3CCN(S(C)(=O)=O)CC3)ncc2C(F)(F)F)cn1` [Example 28, N-(cis-3-Hydroxy-1-methylcyclobutyl)-6-methyl-5-(4-(2-(1-(methylsulfonyl)piperidin-4-ylamino)-5-(trifluoromethyl)pyrimidin-4-yl)-1H-pyrazol-1-yl)picolinamide]: the pIC50 is > 7.30.
